What all share (assay type): functional
Test [1] concerns Mus musculus. Kind of test: Tested for the maximum possible analgesic effect along with naloxone (10 mg/kg) after 15 min at subcutaneous dosage of 10000 ug/kg.
Test [2] has as its system Mus musculus. Nature of the test: Tested for the maximum possible analgesic effect along with naloxone (10 mg/kg) after 30 min at subcutaneous dosage of 10000 ug/kg.
The subject of test [3] is Mus musculus. Kind of test: Tested for the maximum possible analgesic effect along with naloxone (10 mg/kg) after 5 min at subcutaneous dosage of 10000 ug/kg.
The subject of test [4] is Mus musculus. Nature of the test: Tested for the maximum possible analgesic effect along with saline after 15 min at subcutaneous dosage of 10000 ug/kg.
The test system of test [5] is Mus musculus. Kind of test: Tested for the maximum possible analgesic effect along with saline after 30 min at subcutaneous dosage of 1000-10000 ug/kg.
The test system of test [6] is Mus musculus. Kind of test: Tested for the maximum possible analgesic effect along with saline after 30 min at subcutaneous dosage of 10000 ug/kg.
Test [7] deals with Mus musculus. Nature of the test: Tested for the maximum possible analgesic effect along with saline after 5 min at subcutaneous dosage of 10000 ug/kg.
The subject of test [8] is Mus musculus. Kind of test: Tested for the analgesic effect in the mouse tail-flick assay at 5 min after subcutaneous injection at dosage of 10-50 ug/kg. The following applies: sc.
For test [9], the system named is Mus musculus. Kind of test: Tested for the maximum possible analgesic effect of epibatidine after 15 min in mouse tail-flick assay at subcutaneous dosage of 10 ug/kg.
In test [10] the test system is Mus musculus. Kind of test: Tested for the maximum possible analgesic effect of epibatidine after 30 min in mouse tail-flick assay at subcutaneous dosage of 10 ug/kg.
Test [11] relates to Mus musculus. Nature of the test: Tested for the maximum possible analgesic effect of epibatidine after 5 min in mouse tail-flick assay at subcutaneous dosage of 10 ug/kg.
Test [12] has as its system Mus musculus. Kind of test: Tested for the analgesic effect in the mouse tail-flick assay at 5 min after subcutaneous injection at dosage of 1000 ug/kg. The following applies: sc.
The subject of test [13] is Mus musculus. Kind of test: Tested for the maximum possible analgesic effect of epibatidine after 30 min in mouse tail-flick assay at subcutaneous dosage of 1000 ug/kg.
Test [14] deals with Mus musculus. Nature of the test: Tested for the maximum possible analgesic effect of epibatidine after 5 min in mouse tail-flick assay at subcutaneous dosage of 1000 ug/kg.
Test [15] has as its system Mus musculus. Kind of test: Tested for the maximum possible analgesic effect of epibatidine at 15 min in mouse tail-flick assay after subcutaneous dosage of 1000 ug/kg.
In test [16] the test system is Mus musculus. Nature of the test: Tested for the analgesic effect in the mouse tail-flick assay at 5 min after subcutaneous injection at dosage of 5-50 ug/kg.
In test [17] the test system is Mus musculus. Kind of test: Tested for the maximum possible analgesic effect along with naloxone (10 mg/kg) after 15 min at subcutaneous dosage of 10 ug/kg.
The subject of test [18] is Mus musculus. Nature of the test: Tested for the maximum possible analgesic effect along with naloxone (10 mg/kg) after 30 min at subcutaneous dosage of 10 ug/kg.
The subject of test [19] is Mus musculus. Nature of the test: Tested for the maximum possible analgesic effect along with saline after 15 min at subcutaneous dosage of 10 ug/kg.
Test [20] deals with Mus musculus. Nature of the test: Tested for the maximum possible analgesic effect along with saline after 30 min at subcutaneous dosage of 10 ug/kg.
Test [21] relates to Mus musculus. Nature of the test: Tested for the maximum possible analgesic effect along with saline after 5 min at subcutaneous dosage of 10 ug/kg.
Test [22] concerns Mus musculus. Nature of the test: Tested for the maximum possible analgesic effect along with naloxone (10 mg/kg) after 5 min at subcutaneous dosage of 10 ug/kg.
The test system of test [23] is Mus musculus. Kind of test: Tested for maximum possible of analgesic effect of epibatidine after 5 min in mouse tail-flick assay at subcutaneous dosage of 10 ug/kg.
Test [24] deals with Mus musculus. Kind of test: Tested for the analgesic effect in the mouse tail-flick assay at 5 min after subcutaneous injection at dosage of 50-1000 ug/kg. Particulars: sc.
Test [25] has as its system Mus musculus. Kind of test: Tested for the maximum possible analgesic effect of epibatidine after 15 min in mouse tail-flick assay at subcutaneous dosage of 1000 ug/kg.

SMILES strings stand for the structures.

Consider `CN1CC[C@]23c4c5ccc(O)c4O[C@H]2[C@@H](O)C=C[C@H]3[C@H]1C5.CN1CC[C@]23c4c5ccc(O)c4O[C@H]2[C@@H](O)C=C[C@H]3[C@H]1C5.O=S(=O)(O)O`, for which the Max possible effect stood at 3% in test [1]; 4% in test [2]; 0% in test [3]; 51% in [4]; 4524% in test [5]; 94% in test [6]. Moreover, in test [7], the Max possible effect was 7%.
With `CN1C2CCC1C(c1ccc(Cl)nc1)C2` (configuration not stated), the 50% effect level in [8] (ED50) was put at a dose of 9 µg/kg. For the same molecule, the Max possible effect in test [9] turned out to be 16%; in test [10], 8%; in test [11], 64%.
Consider `CC(=O)N1C2CCC1C(c1ccc(Cl)nc1)C2` (configuration not stated), for which the 50% effective dose (ED50) in [12] is above 1000 µg/kg. For the same molecule, the Max possible effect in test [13] stood at 0%; in test [14], 4%; in [15], 3%.
In the case of `Clc1ccc(C2CC3CCC2N3)cn1` (racemic) [EPIBATIDINE], the 50% effective dose (ED50) in test [16] was determined as 10 µg/kg. Moreover, the Max possible effect came out at 23% in test [9], 5% in [10] and 47% in test [11].
`Clc1ccc(C2CC3CCC2N3)cn1` (stereo in doubt; d-1) [EPIBATIDINE]: the ED50 in test [16] (Mus musculus, Tail, sc, 5 min, read-out: ED50) is 7 µg/kg. Also, the Max possible effect in test [17] was determined as 49%; in test [18] it was 0%; in test [19], 48%; in test [20], 4%; in test [21], 86%; in [9], 32%. For the same molecule, the Max possible effect in test [10] was found to be 3%; in [11], 89%; in [22], 77%.
`Clc1ccc(C2CC3CCC2N3)cn1` (stereo in doubt; l-1) [EPIBATIDINE] registered a median effective dose (ED50) in [16] of 9 µg/kg. For the same molecule, the figures for the Max possible effect in test [23], in [9] and in test [10] were 58%, 46% and 1%, respectively.
Turning to `Clc1ccc(C2CC3CCC2N3)cn1` (configuration not stated) [EPIBATIDINE], the ED50 in test [24] is above 1000 µg/kg. For the same molecule, the Max possible effect in test [25] is listed as 10%; in [13], 11%; in test [14], 5%.

(Values after ChEMBL document CHEMBL1127166, “The analgesic effect of epibatidine and isomers” (1993).)
